The AUC is the area under the concentration-time curve, a measure of exposure. Read a high AUC as high exposure. A word on the Cmax: it is the peak of the concentration-time curve. The Tmax is the time from dosing to the highest level.

The values that follow come from US20130209543A1, “ENHANCED TREATMENT REGIMENS USING MTOR INHIBITORS” (Intellikine LLC, priority 2011, published 2013).

In series [1] the test system is TORC1 (p4EBP1 and pS6) and TORC2 (pPRAS40). Briefly: Human skin immunohistochemistry assay (skin biopsies, pathway inhibition). It counts as in vivo. Conditions: 6 mg QD, read-out: PD (% inhibition, H score) Skin: 4EBP1/PRAS40. On the procedure:
Human Skin Immunohistochemistry Assay.
Skin tissue was fixed in 10% neutral-buffered formalin solution for 24 hours and then processed and embedded in paraffin block. Sections (4 μm) were cut and mounted onto microscopic slides. Sections were incubated with primary antibodies (p4EBP1, pS6, or pRAS40) overnight and developed using a chromogenic substrate.
Pharmacodynamic (PD) endpoints were evaluated in surrogate (peripheral blood cells [PBCs], skin) and tumor tissues for the phosphorylation of TORC1-dependent markers (4EBP1/S6), and TORC2-dependent markers (AKT/PRAS40). 50 patients were treated in 3 intermittent dosing regimens; 21 in 6 cohorts ranging 7-40 mg QW, 20 in 5 cohorts ranging 6-20 mg QD×3d QW, and 9 in 3 cohorts ranging 7-13 mg QD×5d QW. […] The MTD for intermittent dosing was not reached. All adverse events (AEs) reported were reversible. The most common (≧20%, n=35) AEs considered possibly related to compound A reported in all 3 dosing regimens included nausea (51%), hyperglycemia (37%), mucosal inflammation (29%), rash (23%), asthenia (23%), vomiting (26%), and diarrhea (20%). The majority of AEs considered possibly related to compound A in any regimen were Grade 1 or 2. The only reported Grade≧3 AE (≧5%) possibly related to compound A in 3 regimens was lymphopenia (6%). Tables 4-9 show summaries of observed adverse events for various treatment regimens of the invention.

Series [2] can be described thus: Phase I clinical trial: plasma pharmacokinetics. Type of series: in vivo, human. Conditions: for AUC / Cmax: oral. On the procedure: Adult patients with histologically confirmed advanced solid tumors were enrolled in a 3+3 dose escalation Phase I study evaluating 3 intermittent schedules of administration for compound A: QW (once weekly), QD×3d QW (3 days on 4 days off), and QD×5d QW (5 days on 2 days off), in comparison with daily dosing (QD). Safety, maximum tolerated dose (MTD), pharmacokinetics (PK) and preliminary antitumor activity were evaluated.

SMILES strings stand for the structures.

Turning to `CC(C)n1nc(-c2ccc3oc(N)nc3c2)c2c(N)ncnc21` [compound A], the inhibition at 6 mg in series [1] amounted to 60%. Also, the AUC in series [2] (human, plasma, 6 mg QD) is 8 µM·h; in series [2] (human, plasma, 10 mg Q5D), 10 µM·h; in series [2] (human, plasma, 13 mg Q5D), 13 µM·h; in series [2] (human, plasma, 16 mg Q3D), 8 µM·h; in series [2] (human, plasma, 20 mg Q3D) it was 10 µM·h; in series [2] (human, plasma, 30 mg QW), 5 µM·h. The same compound gave an area under the curve (AUC) in series [2] (human, plasma, 40 mg QW) of 6.5 µM·h. Also, the Cmax worked out at 150 nM in series [2] (human, plasma, 6 mg QD); 250 nM in series [2] (human, plasma, 10 mg Q5D); 300 nM in series [2] (human, plasma, 13 mg Q5D); 350 nM in series [2] (human, plasma, 16 mg Q3D); 400 nM in series [2] (human, plasma, 20 mg Q3D); 600 nM in series [2] (human, plasma, 30 mg QW). Also, the maximum concentration (Cmax) in series [2] (human, plasma, 40 mg QW) was 700 nM. Besides, the Tmax in series [2] (human, plasma, oral doses, patients) is 0.5 to 4 h. Also, the half-life in series [2] (human, plasma, oral doses, patients, read-out: mean elimination plasma t1/2 (converted)) is 8 h. Further, the “Plasma exposures (Cmax and AUC0-24) versus dose” value in series [2] (oral doses) is “dose-linear plasma PK”.
